Source: patent US6362166B1, “Antipicornaviral compounds and methods for their use and preparation” (Agouron Pharmaceuticals, Inc., priority 1996, dated 2002)
Where two headings read alike, the source gives them in different places.

Tests used:
[1] = target: T1, Recombinant Rhinovirus 3C protease (RVP) serotype 2 (Human rhinovirus 2, UniProt P04936); experiment: Inhibition of Rhinovirus Protease (fluorescence resonance energy transfer assay), serotype 2; type: biochemical, human rhinovirus (HRV); settings: for kobs/I: progress curves in enzyme start experiments
T1 construct: Recombinant Rhinovirus 3C proteases from serotypes 14, 16, 2 or 89; made in house
T1 sequence (P04936 1508-1690): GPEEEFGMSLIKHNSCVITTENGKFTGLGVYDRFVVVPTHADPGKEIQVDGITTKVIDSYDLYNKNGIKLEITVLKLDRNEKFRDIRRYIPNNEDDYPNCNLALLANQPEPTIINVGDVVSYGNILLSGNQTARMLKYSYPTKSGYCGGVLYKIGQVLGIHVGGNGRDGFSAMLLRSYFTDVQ
Experimental: (§1) Stock solution (50 mM, in DMSO) of various compounds were prepared; dilutions were in the same solvent. Recombinant Rhinovirus 3C proteases from serotypes 14, 16, 2 or 89 were prepared by the following standard chromatographic procedures: (1) ion exchange using Q Sepharose Fast Flow from Pharmacia; (2) affinity chromatography using Affi-Gel Blue from Biorad; and (3) sizing using Sephadex G-100 from Pharmacia. Assays contained 2% DMSO, 50 mM tris pH 7.6, 1 mM EDTA, a compound at the indicated concentrations, approximately 1 μM substrate, and 50-100 nM protease. […] The kobs/I values were obtained from reactions initiated by addition of enzyme rather than substrate. RVP activity is measured in the fluorescence resonance energy transfer assay. The substrate was (N-terminal) DABCYL-([…]Gyl)-EDANS. In the uncleaved peptide, the EDANS fluorescence was quenched by the proximal DABCYL moeity. When the peptide was cleaved, the quenching was relieved, and activity was measured as an increase in fluorescence signal.
(§2) In the above table, all data is RVP serotype-14 unless otherwise noted in parentheses. All strains of human rhinovirus (HRV) were purchased from American Type Culture Collection (ATCC), except for serotype 14, which was produced from the infectious cDNA clone constructed and supplied to us by Dr. Roland Rueckert at the Institute for Molecular Virology, University of Wisconsin, Madison, Wisc. […] The data in the column designated kobs/I was measured from progress curves in enzyme start experiments.

[2] = target: T2, Recombinant Rhinovirus 3C protease (RVP) serotype 16 (Human rhinovirus 16, UniProt Q82122); experiment: Inhibition of Rhinovirus Protease (fluorescence resonance energy transfer assay), serotype 16; type: biochemical, human rhinovirus (HRV); settings: for kobs/I / kinact/KI: progress curves in enzyme start experiments; for kinact/KI: pH 7.6, read-out: kobs/I
T2 construct: Recombinant Rhinovirus 3C proteases from serotypes 14, 16, 2 or 89; made in house
T2 sequence (Q82122 1511-1693): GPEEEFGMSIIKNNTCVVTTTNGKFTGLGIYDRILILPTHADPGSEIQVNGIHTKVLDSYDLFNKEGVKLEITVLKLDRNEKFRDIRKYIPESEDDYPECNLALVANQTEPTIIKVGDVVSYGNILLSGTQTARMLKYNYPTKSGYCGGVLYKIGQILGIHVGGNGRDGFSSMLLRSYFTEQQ
Experimental: as §1, §2

[3] = tested on: HRV-14; experiment: Antirhinoviral HI-HeLa Cell Culture Assay (Cell Protection Assay, XTT dye reduction); type: cell-based, human rhinovirus (HRV) serotype-14
How it was run: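 Protection measured via XTT dye reduction (450/650 nm) two days after compound treatment of HI-HeLa cells, mock-infected or infected with cDNA-derived HRV-14 at m.o.i. 0.13. CC50 divided by EC50 gives the therapeutic index.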

[4] = target: T3, Recombinant Rhinovirus 3C protease (RVP) serotype-14 (Human rhinovirus 14, UniProt P03303); experiment: Inhibition of Rhinovirus Protease (fluorescence resonance energy transfer assay), serotype 14; type: biochemical, human rhinovirus (HRV); settings: for kobs/I: progress curves in enzyme start experiments; for kinact/KI: pH 7.6, read-out: kobs/I
T3 construct: Recombinant Rhinovirus 3C proteases from serotypes 14, 16, 2 or 89; made in house
T3 sequence (P03303 1538-1719): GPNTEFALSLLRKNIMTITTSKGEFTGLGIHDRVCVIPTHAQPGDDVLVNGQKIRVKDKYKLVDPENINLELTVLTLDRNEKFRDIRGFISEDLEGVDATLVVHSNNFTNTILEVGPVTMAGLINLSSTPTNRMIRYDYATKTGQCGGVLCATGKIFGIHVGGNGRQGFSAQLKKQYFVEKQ

[5] = tested on: HI-HeLa cells; experiment: Cytotoxicity in mock-infected HI-HeLa cells (antirhinoviral assay, XTT); type: cell-based
[6] = as above; type: cell-based; settings: human; mock-infected HI-HeLa cells; two days; XTT; read-out: CC50
[7] = HI-HeLa cells infected with HRV-14, m.o.i. 0.13, two days, XTT, read-out: EC50
[8] = RVP serotype-14, 10 minute preincubation, substrate start, read-out: INHIB (Ki)
[9] = mock-infected HI-HeLa cells, two days, XTT, read-out: CC50
[10] = Rhinovirus B, HRV14, 48 h, HI-HeLa cells infected with HRV-14, m.o.i. 0.13, two days, XTT, read-out: EC50

Compound | kobs/I [1] | kobs/I ([2]; RVP serotype 16) | EC50 [3, 7] [µM] | kobs/I ([4]; RVP serotype-14) | CC50 [5] [µM] | further results
CCOC(=O)/C=C/[C@H](CCC(N)=O)NC(=O)[C@H](Cc1ccccc1)NC(=O)[C@H](CSc1ccccc1)NC(=O)SC1CCCC1 [Compound 173, Ethyl-3-[Cyclopentylthiocarbonyl-L-(S-Ph-Cys)-L-Phe-L-Gln]-E-Propenoate] | 113,000 M-1 sec-1 | 185,000 M-1 sec-1 | 0.08 | 1,000,000 M-1 sec-1 | > 100 | 
CCOC(=O)C=CC(CCC(N)=O)NC(=O)C(Cc1ccccc1)NC(=O)C(NC(=O)OCc1ccccc1)C(C)CC (stereo not shown) [Compound 172] | 2,000 M-1 sec-1 | 6,000 M-1 sec-1 | 0.79 | 31,700 M-1 sec-1 | > 100 | 
CCOC(=O)/C=C/[C@H](CCC(N)=O)NC(=O)[C@H](Cc1ccccc1)NC(=O)[C@H](CC(C)C)NC(=O)SC(C)C [Compound 170] | 8,400 M-1 sec-1 | 30,000 M-1 sec-1 | 0.2 | 85,300 M-1 sec-1 | > 100 | 
CCOC(=O)/C=C/[C@H](CCC(N)=O)NC(=O)[C@H](Cc1ccccc1)NC(=O)[C@H](Cc1ccccc1)NC(=O)SCc1ccccc1 [Compound 161] | 200,000 M-1 sec-1 | 126,000 M-1 sec-1 | 0.17 | 1,086,000 M-1 sec-1 | > 100 | 
CCOC(=O)/C=C/[C@H](CCC(N)=O)NC(=O)[C@H](Cc1ccccc1)NC(=O)[C@H](CO)NC(=O)OCc1ccccc1 [Compound 149] | 2,840 M-1 sec-1 | 7,700 M-1 sec-1 | 1.78 | 39,940 M-1 sec-1 | > 320 | 
CCOC(=O)/C(C)=C/[C@H](CCC(N)=O)NC(=O)[C@H](Cc1ccccc1)NC(=O)[C@H](CC(C)C)NC(=O)SC(C)C [Compound 171] | 830 M⁻¹ s⁻¹ | 3,250 M-1 sec-1 | 0.71 | 21,200 M-1 sec-1 | > 100 | 
CCOC(=O)/C=C/[C@H](CCC(N)=O)NC(=O)[C@H](Cc1ccccc1)NC(=O)[C@@H](NC(=O)SCC)C(C)(C)C [Compound 167, Ethyl-3-[Ethylthiocarbonyl-L-α-(t-Butyl-Gly)-L-Phe-L-Gln]-E-Propenoate] | 10,700 M-1 sec-1 | 42,100 M-1 sec-1 | 0.083 | 165,400 M-1 sec-1 | > 100 | 
CCOC(=O)/C=C/[C@H](CCC(N)=O)NC(=O)[C@H](Cc1ccc(F)cc1)NC(=O)[C@H](CC(C)C)NC(=O)OCc1ccccc1 [Compound 35, Ethyl-3-[CBZ-L-Leu-L-(4-F-Phe)-L-Gln]-E-Propenoate] | 2,357 M-1 sec-1 | 9,177 M-1 sec-1 | 1.8 | 46,388 M-1 sec-1 |  | Ki [4, 8]: 16.5 µM; CC50 [5, 9]: > 320 µM
CCOC(=O)/C=C/[C@H](CCC(N)=O)NC(=O)[C@H](Cc1ccccc1)NC(=O)[C@H](CCc1ccccc1)NC(=O)SCc1ccccc1 [Compound 162] | 150,000 M-1 sec-1 | 80,000 M-1 sec-1 | 0.32 | 800,000 M-1 sec-1 | > 100 | 
CCOC(=O)/C=C/[C@H](CCC(N)=O)NC(=O)[C@H](CC1CCCCC1)NC(=O)[C@H](CC(C)C)NC(=O)OCc1ccccc1 [Compound 135] | 671 M⁻¹ s⁻¹ | 3,465 M-1 sec-1 | 1.9 | 16,270 M-1 sec-1 |  | CC50 [5, 9]: > 320 µM
CCOC(=O)/C=C/[C@H](CCC(N)=O)NC(=O)[C@H](Cc1ccccc1)NC(=O)[C@H](CSCc1ccccc1)NC(=O)OCc1ccccc1 [Compound 165] | 5,600 M-1 sec-1 | 20,200 M-1 sec-1 | 0.2 | 97,000 M-1 sec-1 | > 100 | 
CCOC(=O)/C=C/[C@H](CCC(N)=O)NC(=O)[C@H](Cc1ccccc1)NC(=O)[C@H](C[S+]([O-])Cc1ccccc1)NC(=O)OCc1ccccc1 (stereo partly shown) [Compound 166] | 3,500 M-1 sec-1 | 7,700 M-1 sec-1 | 5.6 | 40,900 M-1 sec-1 | > 100 | 
CC(C)C[C@H](NC(=O)OCc1ccccc1)C(=O)N[C@@H](Cc1ccccc1)C(=O)N[C@H](/C=C/C(=O)N1CCOC1=O)CCC(N)=O [Compound 62] | 600,000 M-1 sec-1 | 300,000 M-1 sec-1 | 1.6 | 600,000 M-1 sec-1 | > 100 | 
CCOC(=O)/C=C/[C@H](CCC(N)=O)NC(=O)[C@H](Cc1ccccc1)NC(=O)[C@H](CC(=O)N(C)C)NC(=O)OCc1ccccc1 [Compound 158] | 2,200 M-1 sec-1 | 6,400 M-1 sec-1 | 5.9 | 22,600 M-1 sec-1 | > 320 | Ki [4, 8]: 17 µM
CCOC(=O)/C=C/[C@H](CCC(N)=O)NC(=O)[C@H](Cc1ccc(CO)cc1)NC(=O)[C@H](CC(C)C)NC(=O)OCc1ccccc1 [Compound 114] |  |  |  |  |  | kinact/KI ([1]; pH 7.6, progress curves in enzyme start experiments, read-out: kobs/I): 1970 M⁻¹ s⁻¹; EC50 [3, 10]: 0.55 µM; Ki [4]: ≥ 1 µM; kinact/KI [4]: 82300 M⁻¹ s⁻¹; CC50 at 2 days [6]: > 320 µM
CCOC(=O)/C=C/[C@H](CCC(N)=O)NC(=O)[C@H](Cc1ccc(C)cc1)NC(=O)[C@@H](NC(=O)SC1CCCC1)C(C)C [Compound 183] |  |  |  |  |  | kinact/KI ([2]; RVP serotype 16): 60000 M⁻¹ s⁻¹; EC50 ([3]; Rhinovirus B, HRV14, 48 h): 0.03 µM; Ki [4]: 0.55 µM; kinact/KI [4]: 500000 M⁻¹ s⁻¹; CC50 at 2 days [6]: > 100 µM
CC(C)C[C@H](NC(=O)OCc1ccccc1)C(=O)N[C@@H](Cc1ccccc1)C(=O)N[C@H](/C=C/C(=O)N1CCCC1=O)CCC(N)=O [Compound 61] | 14,000 M-1 sec-1 | 25,000 M-1 sec-1 | 0.89 | 125,940 M-1 sec-1 | 56 | 
CC(C)C[C@H](NC(=O)OCc1ccccc1)C(=O)N[C@@H](Cc1ccccc1)C(=O)N[C@H](/C=C/C(=O)n1ccc2ccccc21)CCC(N)=O [Compound 89] |  |  |  |  |  | kinact/KI ([2]; RVP serotype 16): 2800 M⁻¹ s⁻¹; EC50 [3, 10]: 1.8 µM; Ki [4]: 5 µM; kinact/KI [4]: 53400 M⁻¹ s⁻¹; CC50 at 2 days [6]: 29 µM
CCC[C@H](NC(=O)[C@H](CC(C)C)NC(=O)OCc1ccccc1)C(=O)N[C@H](/C=C/C(=O)OCC)CCC(N)=O [Compound 137] | 643 M⁻¹ s⁻¹ | 1,157 M-1 sec-1 | 224 | 2,344 M-1 sec-1 | > 320 | 
CCOC(=O)/C=C/[C@H](CCC(N)=O)NC(=O)[C@H](Cc1ccc(OC)cc1)NC(=O)[C@H](CC(C)C)NC(=O)OCc1ccccc1 [Compound 103] | 1,106 M-1 sec-1 | 3,354 M-1 sec-1 | 1.7 | 29,200 M-1 sec-1 | > 320 | 
CCOC(=O)/C=C/[C@H](CCC(N)=O)NC(=O)[C@H](Cc1ccccc1)NC(=O)[C@@H](NC(=O)OCc1ccccc1)C(C)C [Compound 146] | 7,790 M-1 sec-1 | 16,900 M-1 sec-1 | 0.38 | 62,500 M-1 sec-1 | > 320 | 
CC(C)CC(NC(=O)OCc1ccccc1)C(=O)NC(Cc1ccccc1)C(=O)NC(C=C1CCOC1=O)CCC(N)=O (stereo not shown) [Compound 90] |  | 3,600 M-1 sec-1 | 5.2 | 10,918 M-1 sec-1 | > 320 | 
COC(=O)/C=C\[C@H](CCC(N)=O)NC(=O)[C@H](Cc1ccccc1)NC(=O)[C@H](CC(C)C)NC(=O)OCc1ccccc1 [Compound 7, Methyl-3-(CBZ-L-Leu-L-Phe-L-Gln)-Z-Propenoate] |  |  |  |  |  | inhibition at 1 µM ([2]; RVP serotype 16, 1 μM compound, 10 minute preincubation with 50 nM RVP, read-out: INHIB (percent inhibition)): 42%; EC50 [3, 10]: 3.2 µM; Ki [4]: 9.5 µM; kinact/KI [4]: 2400 M⁻¹ s⁻¹; CC50 at 2 days [6]: > 320 µM
CCOC(=O)/C=C/[C@H](CCC(N)=O)NC(=O)[C@H](Cc1ccccc1)NC(=O)[C@H](CC(C)C)NC(=O)c1ccc(Oc2ccccc2)cc1 [Compound 104] |  |  |  |  |  | Ki [2]: 1.5 µM; EC50 [3, 10]: 5.2 µM; Ki [4]: 2.5 µM; kinact/KI [4]: 8000 M⁻¹ s⁻¹; CC50 at 2 days [6]: > 320 µM
